Results on 1 compound are retold here after patent publication EP0873397B1, “NOVEL MICROORGANISM AND METHOD FOR ENVIRONMENTAL PURIFICATION USING THE SAME” (priority 1996, dated 1998).

A short description of this data set: Analysis of byproducts in soil after trichloroethylene decomposition by UV-sterilized bacterial mass. As for the experimental part:
After plating the suspension of the bacterial mass onto a petri dish to a thickness of about 1 mm, and then sterilized under irradiation of a 15 W ultra violet lamp with a wavelength of 260 nm for not less than 60 seconds at a distance of 40 cm from the light source.
After that, trichloroethylene in the soil was allowed to be decomposed and the byproducts which is believed to be formed in association with trichloroethylene decomposition were analyzed in a similar manner to Example 13. Furthermore, in an experiment in which the suspension of sterilized bacterial mass at an amount of 1/100 of that of the NYG medium was inoculated or the suspension was plated as it was onto the NYG agar medium and cultured at 30°C, neither increase in turbidity of the culture liquid nor colony formation were observed, and thereby it was confirmed that there was complete sterilization.

`OCC(Cl)(Cl)Cl` [Trichloroethanol]: the “Result (byproduct in the soil)” value was “Not detected”.
